Here are results for four compounds from patent publication US7410945B2, “Treatment of inflammatory bowel disease” (The University of Queensland, priority 2002, dated 2008).

Entries after “also recorded” stand apart in the source; their conditions may differ. Bounds are passed on as bounds.

Assay [1] deals with TNBS-induced colitis in rats. Kind of assay: TNBS-induced colitis in rats, acute 24-hour study. It counts as in vivo, rat. The note with it: for colon macroscopic score: scale 0-13. Here is the method: Two time-frames were chosen for this study, an acute time frame (24 hours), and a chronic time frame (8-days). During the course of the study both body weight and food eaten were measured daily. In the 24-hour study, all drug treatments commenced 2 days prior to instillation of TNBS (prevention). PMX53-, prednisolone- and combination-treated rats were treated once daily, and C3a antagonist-treated rats were dosed twice daily. Rats treated with the anti-TNF-α monoclonal antibody, infliximab, were dosed intravenously on one occasion, 2 days prior to TNBS instillation.
Statistical significance was assessed at P<0.05.

Assay [2] relates to TNBS-induced colitis in rats. Kind of assay: TNBS-induced colitis in rats, chronic 8-day study.
Method: Male Wistar rats (250-300 g) were starved for 24 hours prior to being anaesthetised with ketamine (80 mg/kg i.p.) and xylazine (8 mg/kg i.p.). […] 120 mg/kg TNBS (50 mg/mL solution) along with 250 μL ethanol (100%) was then instilled to rats, which remained in the head-down position for 30 min to prevent leakage. Sham-operated rats (rats without colitis) received either saline alone or 250 μL ethanol and saline. Rats were then allowed to recover under observation.
At the completion of each experiment, rats were anaesthetized with zolazapam (50 mg/kg, IP) and xylazine (12 mg/kg, IP), and blood was collected and serum stored at −20° C. for later determination of TNF-α concentrations. Colons were dissected, and the distal 8-cm rinsed with saline and scored for clinical macroscopic damage by an independent blinded observer, using a scale of 0-13 as set out below (Bobin-Dubigeon et al, 2001). A section of the affected colon was then collected, weighed, placed in an 80° C. oven for 24 h, then reweighed and the wet-to-dry weight ratio determined as a measure of colon oedema (Rachmilewitz et al., 1989). A separate section of affected colon was also collected and homogenized with 1 mL phosphate buffered saline, sonicated for 20 seconds and centrifuged (14 000×g, 10 min). The resulting supernatant was then either stored (−20° C.) for later TNF-α determination, or used immediately in an assay for the determination of myeloperoxidase (MPO) levels. Briefly, the assay involved the addition of 20 μL substrate (o-dianisidine, 2.85 mg/mL, Sigma, U.S.A.; and 0.85% hydrogen peroxidase) to a 1:40 dilution of supernatant in phosphate buffered saline. […] Results for colon MPO content were converted to absorbance units/g tissue. Additional sections of colon were removed and stored in 10% formalin for histopathological analysis. Fixed colonic samples were embedded in paraffin wax, and sections were stained using a haematoxylin and eosin stain, photographed and examined by an independent observer in a blinded fashion. Tissue and serum TNF-α levels were determined from stored samples using an enzyme-linked immunoabsorbent assay as previously described (Arumugam et al, 2002), using undiluted samples. Results for colonic TNF-α content were then converted to pg TNF-α /g tissue.
In the 8-day study, drug-treated rats were treated both prior to colitis induction (2 days before; prevention) or following colitis induction (24 hours after; reversal).
All experimental results are expressed as means±standard error of the mean (SEM). Data analysis was performed using GraphPad Prism 3.0 software (GraphPad Software, Inc. USA). Statistical comparisons were made between drug-treated groups and colitis control animals using a one-way analysis of variance followed by a Dunnett comparison post-test analysis. Statistical significance was assessed at P<0.05.
The next assay addresses T1, C3a receptor (Homo sapiens, UniProt Q16581).
T1 sequence (Q16581 1-482): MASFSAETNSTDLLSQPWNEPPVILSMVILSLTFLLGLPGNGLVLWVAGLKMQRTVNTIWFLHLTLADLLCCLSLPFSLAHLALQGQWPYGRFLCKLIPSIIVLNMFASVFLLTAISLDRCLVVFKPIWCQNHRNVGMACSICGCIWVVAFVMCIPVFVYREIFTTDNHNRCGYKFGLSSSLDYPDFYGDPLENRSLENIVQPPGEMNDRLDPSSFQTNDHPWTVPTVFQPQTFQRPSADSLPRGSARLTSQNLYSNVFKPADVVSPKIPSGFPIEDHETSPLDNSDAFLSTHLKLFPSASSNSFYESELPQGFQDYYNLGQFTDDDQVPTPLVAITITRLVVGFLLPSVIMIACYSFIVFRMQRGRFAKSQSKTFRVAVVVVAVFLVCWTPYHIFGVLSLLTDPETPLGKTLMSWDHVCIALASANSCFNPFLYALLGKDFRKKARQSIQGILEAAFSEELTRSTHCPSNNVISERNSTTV
The note with it: Finch et al, 1999; cited from earlier work.

The next assay concerns membrane attack complex. To be noted: Arumugam et al, 2003; cited from earlier work.
The subject of the next assay is C5a receptor. To be noted: cited from earlier work.
[3] abbreviates: 8 days, post-treated 1 mg/kg/day SC, P>0.05.
Where [4] appears, read: 8 days, pre-treated 1 mg/kg/day SC, P<0.05.
The mark [5] stands for this setting: 8 days, pre-treated rats, haematoxylin and eosin sections, vs drug-free rats.
[6] abbreviates: post-treatment (from 24 h after colitis induction; reversal).
The mark [7] stands for this setting: pre-treatment (from 2 days before colitis induction).
[8] abbreviates: 24 h, drug pre-treatment, vs drug-free colitis control.
Where [9] appears, read: 24 h, pre-treated 10 mg/kg/day oral or 0.3 mg/kg/day SC, P<0.05 vs colitis control.
Setting [10] is: 8 days, prior to induction (10 mg/kg/day oral and 0.3 mg/kg/day SC) or 24 h after induction (1 and 10 mg/kg/day oral), P<0.05.
[11] abbreviates: 8 days, prior to induction (10 mg/kg/day oral and 0.3 mg/kg/day SC) or 24 h after induction (1 and 10 mg/kg/day oral), P<0.05, listed as C5a antagonist.
The mark [12] stands for this setting: 8 days, pre-treated 3 mg/kg IV, P<0.05.

For `NC(N)=NCCC[C@H](NC(=O)COCC(c1ccccc1)c1ccccc1)C(=O)O` [SB 290157, Ph2CHCH2OCH2CO-Arg-OH, reference compound], the “colon oedema (wet-to-dry weight ratio)” value in assay [1] (24 h, C3a antagonist 30 mg/kg bid IP, pre-treatment) is reported as “did not have a significant effect”. Moreover, the “overall disease pathology / parameters measured” value in assay [1] (24 h study) was “effective in reducing some of the parameters measured; also recorded: able to modulate the pathology of IBD”. The macroscopic damage entry in assay [1] (24 h study, 30 mg/kg i.p. twice daily, vs colitis control) is “reduced the intensity of macroscopic damage”.

The mortality is the percentage killed. On to `C[C@]12C=CC(=O)C=C1CC[C@@H]1[C@@H]2[C@@H](O)C[C@@]2(C)[C@H]1CC[C@]2(O)C(=O)CO` [prednisolone], for which the colon histopathology result in assay [2] (8 days, post-treated 1 mg/kg/day SC, FIG. 8D) is “showed no improvement in disease pathology; also recorded: IC infiltration, E, extensive haemorrhage (H) and erosion of ML”; in assay [2] (setting [5]) it was “showed an improvement in pathology”. Further, the entries for the “colonic MPO levels” value in assay [2] (setting [3]) and in assay [2] (setting [4]) were “did not show any improvement in colonic MPO levels” and “significantly reduced colonic MPO levels”, respectively. The “colonic tissue TNF-α levels” value in assay [2] (setting [3]) is “no significant reduction”. Besides, the values for the food consumption entry in assay [2] (setting [3]) and in assay [2] (setting [4]) were “no improvement in food consumption” and “ate significantly more food than colitis control rats”, respectively. Moreover, the “colon oedema (wet-to-dry weight ratio)” value in assay [2] (8 days, post-treatment 1 mg/kg/day SC) is “no effect on reducing oedema”; in assay [2] (8 days, pre-treated 1 mg/kg/day SC, P>0.05), “no significant reductions”. Besides, the mortality result in assay [2] (8 days, post-treatment (24 h after induction)) was “no significant effect on reducing mortality”. The mortality rate in assay [2] (8 days, pre-treated 1 mg/kg/day SC) was found to be 11%. For the same compound, in assay [2] (8 days, pre-treated or post-treated 1 mg/kg/day SC, P>0.05), the “change in body weight” value was “lost weight over the 8 days, with no significant difference compared to colitis control rats; also recorded: lost considerable body weight”. Besides, the colon macroscopic score entry in assay [2] (Day 8, post-treated 1 mg/kg/day SC, P>0.05) was “did not have any improvement in macroscopic scores”; in assay [2] (Day 8, pre-treated 1 mg/kg/day SC, P<0.05) it was “significantly improved macroscopic scores”. The “overall disease parameters / markers” value in assay [2] (setting [6]) was “reversal of pathology was not seen; also recorded: no appreciable therapeutic effects”; in assay [2] (setting [7]) it was “only prednisolone pre-treated rats displayed any improvement in the disease parameters measured; also recorded: effective at reducing the majority of parameters measured”.

AcF-[OPdChaWR] [PMX53]: the “colon TNF-α levels” value in assay [1] (24-hour study) is reported as “significantly reduced”. For the same compound, the colon oedema entry in assay [1] (24 h, drug pre-treatment, vs colitis control) is recorded as “significantly reduced”. In assay [1] (setting [8]), the “colon MPO levels (neutrophil accumulation)” value is recorded as “significantly reduced”. The “colon MPO levels” value in assay [1] (setting [9]) was “significant improvement”. The “colon oedema (wet-to-dry weight ratio)” value is “significant reduction in wet-to-dry weight ratios” in assay [1] (setting [9]), “significantly lower” in assay [2] (setting [10]) and “significant improvement in colon wet-to-dry weight ratios; also recorded: significant reductions in wet-to-dry weight ratios” in assay [2] (setting [11]). Moreover, the colon macroscopic score result is recorded as “significantly lower colon macroscopic scores” in assay [1] (setting [8]); “significantly lower colon macroscopic scores” in assay [2] (Day 8, prior to induction (10 mg/kg/day oral and 0.3 mg/kg/day SC) or 24 h after induction (1 or 10 mg/kg/day oral), P<0.05); “significantly improved macroscopic scores” in assay [2] (Day 8, prior to induction (10 mg/kg/day oral and 0.3 mg/kg/day SC) or 24 h after induction (1 or 10 mg/kg/day oral), P<0.05, listed as C5a antagonist). Moreover, the food consumption entry in assay [1] (24 h after TNBS, drug pre-treatment from 2 days before TNBS, vs drug-free colitis control) is “higher body weights and food intake”; in assay [2] (8 days, prior to induction (10 mg/kg/day oral and 0.3 mg/kg/day SC) or 24 h after induction (1 or 10 mg/kg/day oral), P<0.05) it was “ate significantly more food”; in assay [2] (8 days, prior to induction (10 mg/kg/day oral and 0.3 mg/kg/day SC) or 24 h after induction (1 or 10 mg/kg/day oral), P<0.05, listed as C5a antagonist), “ate significantly more food than colitis control rats”. In addition, the “change in body weight” value in assay [1] (24 h after TNBS, drug pre-treatment, vs drug-free colitis control) was “higher body weights”; in assay [2] (8 days, prior to induction (10 mg/kg/day oral and 0.3 mg/kg/day SC) or 24 h after induction (1 or 10 mg/kg/day oral), P<0.05 vs colitis control), “lost significantly less body weight”; in assay [2] (8 days, prior to induction (10 mg/kg/day oral and 0.3 mg/kg/day SC) or 24 h after induction (1 or 10 mg/kg/day oral), P<0.05 vs colitis control, listed as C5a antagonist), “gained significant weight; also recorded: gained substantial weight over the 8 days, with significantly higher weights compared to colitis control rats”. The “overall disease pathology / parameters measured” value in assay [1] (24 h study) is recorded as “significantly improves disease pathology”. In addition, the “binding to the C3a receptor” value at C3a receptor is listed as “does not bind”. For the same compound, the “effect on the formation of the membrane attack complex” value in the assay with membrane attack complex is reported as “no effect”. For the same compound, in the assay on C5a receptor (Finch et al, 1999), the “specificity for the C5a receptor over other related human receptors” value is given as “specific for the C5a receptor over other related human receptors”. Further, the “specificity for the C5a receptor across species” value in the assay on C5a receptor (human, rat and dog, Woodruff et al, 2001) was “specific for the C5a receptor in human, rat and dog”. In addition, the colon histopathology entry in assay [2] (8 days, post-treated 10 mg/kg/day oral (PO), FIG. 8C) is “decrease in inflammatory cell accumulation and haemorrhage formation”; in assay [2] (8 days, post-treated 10 mg/kg/day oral (PO), FIG. 8C, listed as C5a antagonist) it was “showed an improvement in disease pathology; also recorded: IC infiltration and E, but with intact ML”; in assay [2] (setting [5]), “showed an improvement in pathology”. Further, the deaths result in assay [2] (8 days, pre-treated 0.3 mg/kg SC) is listed as “no deaths”. For the same compound, the “colonic MPO levels (neutrophil accumulation)” value in assay [2] (setting [10]) was “significantly lower”; in assay [2] (setting [11]), “reduced to similar levels to those of the sham-operated animals”. Further, in assay [2] (8 days, prior to induction (10 mg/kg/day oral and 0.3 mg/kg/day SC) or 24 h after induction (1 or 10 mg/kg/day oral)), the mortality rate is at most 20%. Besides, in assay [2] (after 8 days, vs drug-free colitis control, P<0.05), the “colonic tissue TNF-α levels” value was “significantly lower”. Moreover, the mortality entry in assay [2] (over 8 days, vs drug-free colitis control (39%)) is listed as “reduced mortality”. In addition, the “overall disease parameters / markers” value is given as “significant reduction in all disease markers” in assay [2] (setting [6]) and “markedly reduced all the disease markers measured” in assay [2] (setting [7]). Moreover, the overall disease pathology result in assay [2] (rat model of chronic colitis, pre- and post-treatment) was “both prevents and reverses disease pathology”.

Consider infliximab, for which the colon macroscopic score result in assay [1] (setting [8]) is “significant improvement seen in all treatment groups except for infliximab”; in assay [2] (Day 8, pre-treated 3 mg/kg IV, P<0.05), “significantly decreased scores”. Besides, in assay [2] (setting [12]), the “colonic MPO levels” value is given as “significantly reduced colonic MPO levels”. Further, the food consumption entry in assay [2] (setting [12]) is reported as “ate significantly more food than drug-free rats”. Moreover, in assay [2] (8 days, pre-treated 3 mg/kg IV, P>0.05), the “colon oedema (wet-to-dry weight ratio)” value is recorded as “no significant reductions”. For the same compound, in assay [2] (setting [5]), the colon histopathology entry is recorded as “showed an improvement in pathology”. The mortality in assay [2] (8 days, pre-treatment 3 mg/kg IV) came out at 20%. Also, the “change in body weight” value in assay [2] (Day 8, pre-treated 3 mg/kg IV, P>0.05) is reported as “only a small weight gain at Day 8; however, these levels were not significantly higher than colitis control rats”. The “overall disease parameters / markers” value in assay [2] (setting [7]) was “did reduce the severity of lesions, it was not as effective as the C5a antagonist or prednisolone”; in assay [2] (pre-treatment (from 2 days before colitis induction), listed as Infliximab), “significantly reduced disease parameters, however to a lesser extent than those observed in PMX53-treated rats”.
